# Source: patent US20200016231A1, “BIOFILM DISRUPTING COMPOSITION” (Whiteley Corporation Pty Ltd, priority 2016, published 2020)
# Read-outs that look alike come from different tables or passages of the source.
# Key:
# E. cloacae = assay: Biofilm viability, resazurin assay, Enterobacter species: E. cloacae; type: cell-based; conditions: read-out: % bacterial viability; for viability at 10000 µM: GSH 10 mM; for viability at 15000 µM: GSH 15 mM; for viability at 30000 µM: GSH 30 mM
# Method: (§1) Bacterial isolates were grown in Tryptone Soya Broth (TSB) medium for 24 hours at 37° C., in a shaking incubator set at 150 rpm. After this time the organisms were harvested by centrifugation (5000×g, 5 min at 10° C.). After centrifugation, the supernatant liquid was removed and the bacterial pellet was suspended in 1×Phosphate Buffered Saline (PBS). To initiate biofilm growth, the bacterial suspension from PBS was immediately re-suspended in TSB and 250 μL of bacterial cell suspension (OD600=0.5±0.05) were added into the wells of 96-well plates (Corning Corp. USA) and incubated at 37° C. for 48 h at 150 r.p.m.
# (§2) After 24 h, treated biofilms supernatant were replaced with 200 μL of 1×PBS, followed by addition of 15 μL of a 0.05% w/v solution of resazurin (Sigma-Aldrich), and incubated further at 37° C., 150 r.p.m.
# (§3) After a further 24 h, the fluorescent intensity of the biofilm was determined at Ex544 nm and Em590 nm (Tecan infinite M1000 pro microplate reader). Results are plotted as percentage (%) of bacterial vaiability calculated based on fluorescent intensity. Control or untreated bacterial biofilm fluorescent intensity always considered as 100% bacterial viability and % viability under rest of treatment conditions were calculated with reference to control.
# (§4) It should be noted that the Resazurin assay works by recording fluorescence intensity and depends upon two factors (total number of bacteria and total number of viable bacteria in a given biofilm sample).
# (§5) The treatments shown in column 1 of Table 8 were tested against three clinical isolates of Enterobacter species.
# E aerogenes = assay: Biofilm viability, resazurin assay, Enterobacter species: E aerogenes; type: cell-based; conditions: E aerogenes 359475 Sternum, read-out: % bacterial viability
# Method: as §1, §2, §3, §4, §5
# [1] = E. cloacae 359315 Left foot wound
smiles,measurement,setting,value
"N[C@@H](CCC(=O)N[C@@H](CS)C(=O)NCC(=O)O)C(=O)O [GSH, glutathione]",viability at 10000 µM,E. cloacae; E. cloacae 357768 Ear,62.8%
same,viability at 15000 µM,E. cloacae; E. cloacae 357768 Ear,38.9%
same,viability at 30000 µM,E. cloacae; E. cloacae 357768 Ear,0%
same,viability at 10000 µM,E. cloacae; [1],84.7%
same,viability at 15000 µM,E. cloacae; [1],74%
same,viability at 30000 µM,E. cloacae; [1],19.5%
same,viability at 10000 µM,E aerogenes; GSH 10 mM,79%
same,viability at 15000 µM,E aerogenes; GSH 15 mM,55.1%
same,viability at 30000 µM,E aerogenes; GSH 30 mM,14.6%
